Data from patent US20110077248A1, “IMIDAZOPYRIDINE AND RELATED ANALOGS AS SIRTUIN MODULATORS” (Sirtris Pharmaceuticals, Inc., priority 2008, published 2011).

Target: T1, SIRT1 (Homo sapiens, UniProt Q96EB6)
T1 construct: His-tag (N); made in house; host or cells: E. coli BL21(DE3), T7-promoter vector
T1 sequence (Q96EB6 1-747): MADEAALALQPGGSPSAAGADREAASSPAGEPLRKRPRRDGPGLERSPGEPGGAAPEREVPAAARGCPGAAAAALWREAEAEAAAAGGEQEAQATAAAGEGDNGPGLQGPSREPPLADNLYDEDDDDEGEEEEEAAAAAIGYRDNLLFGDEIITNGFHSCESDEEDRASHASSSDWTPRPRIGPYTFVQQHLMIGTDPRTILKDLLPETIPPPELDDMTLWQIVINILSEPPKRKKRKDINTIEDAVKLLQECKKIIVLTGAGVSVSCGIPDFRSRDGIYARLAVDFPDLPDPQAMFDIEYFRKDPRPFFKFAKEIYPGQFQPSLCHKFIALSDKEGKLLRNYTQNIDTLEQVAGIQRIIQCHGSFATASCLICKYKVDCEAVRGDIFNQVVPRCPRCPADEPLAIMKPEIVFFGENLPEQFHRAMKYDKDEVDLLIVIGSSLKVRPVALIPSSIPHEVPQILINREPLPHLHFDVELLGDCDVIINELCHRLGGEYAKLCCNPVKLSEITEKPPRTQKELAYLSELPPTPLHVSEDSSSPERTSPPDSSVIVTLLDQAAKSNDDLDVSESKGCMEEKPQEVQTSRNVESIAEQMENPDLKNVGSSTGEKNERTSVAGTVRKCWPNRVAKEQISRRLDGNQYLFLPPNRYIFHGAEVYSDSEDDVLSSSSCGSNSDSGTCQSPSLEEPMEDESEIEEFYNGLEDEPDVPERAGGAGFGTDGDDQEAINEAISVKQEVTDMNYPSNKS
Assay: Mass spectrometry based assay for modulators of SIRT1 activity (deacetylation of p53-based acetylated peptide)
Type: biochemical
Conditions: for EC1.5: concentration of test compound that results in 150% activation of SIRT1, 0.5 μM peptide substrate, 120 μM βNAD+, 10 nM SIRT1, 25 min, 25° C.; for Emax: percent maximum fold activation of SIRT1
Text: A mass spectrometry based assay was used to identify modulators of SIRT1 activity. The mass spectrometry based assay utilizes a peptide having 20 amino acid residues as follows: Ac-EE-K(biotin)-GQSTSSHSK(Ac)NleSTEG-K(5TMRi)-EE-NH2 (SEQ ID NO: 1) wherein K(Ac) is an acetylated lysine residue and Nle is a norleucine. The peptide is labeled with the fluorophore 5TMR (excitation 540 nm/emission 580 nm) at the C-terminus. The sequence of the peptide substrate is based on p53 with several modifications. In addition, the methionine residue naturally present in the sequence was replaced with the norleucine because the methionine may be susceptible to oxidation during synthesis and purification.
The mass spectrometry assay is conducted as follows: 0.5 μM peptide substrate and 120 μM βNAD+ is incubated with 10 nM SIRT1 for 25 minutes at 25° C. in a reaction buffer (50 mM Tris-acetate pH 8, 137 mM NaCl, 2.7 mM KCl, 1 mM MgCl2, 5 mM DTT, 0.05% BSA). Test compounds may be added to the reaction as described above. The SirT1 gene is cloned into a T7-promoter containing vector and transformed into BL21(DE3). After the 25 minute incubation with SIRT1, 10 μL of 10% formic acid is added to stop the reaction. Reactions are sealed and frozen for later mass spec analysis. Determination of the mass of the substrate peptide allows for precise determination of the degree of acetylation (i.e. starting material) as compared to deacetylated peptide (product).
A control for inhibition of sirtuin activity is conducted by adding 1 μL of 500 mM nicotinamide as a negative control at the start of the reaction (e.g., permits determination of maximum sirtuin inhibition). A control for activation of sirtuin activity is conducted using 10 nM of sirtuin protein, with 1 μL of DMSO in place of compound, to determinine the amount of deacetylation of the substrate at a given timepoint within the linear range of the assay. This timepoint is the same as that used for test compounds and, within the linear range, the endpoint represents a change in velocity.
For the above assay, SIRT1 protein was expressed and purified as follows. The SirT1 gene was cloned into a T7-promoter containing vector and transformed into BL21(DE3). The protein was expressed by induction with 1 mM IPTG as an N-terminal His-tag fusion protein at 18° C. overnight and harvested at 30,000×g. Cells were lysed with lysozyme in lysis buffer (50 mM Tris-HCl, 2 mM Tris[2-carboxyethyl]phosphine (TCEP), 10 μM ZnCl2, 200 mM NaCl) and further treated with sonication for 10 min for complete lysis. The protein was purified over a Ni-NTA column (Amersham) and fractions containing pure protein were pooled, concentrated and run over a sizing column (Sephadex S200 26/60 global). The peak containing soluble protein was collected and run on an Ion-exchange column (MonoQ). Gradient elution (200 mM-500 mM NaCl) yielded pure protein. This protein was concentrated and dialyzed against dialysis buffer (20 mM Tris-HCl, 2 mM TCEP) overnight. The protein was aliquoted and frozen at −80° C. until further use.
Sirtuin modulating compounds that activated SIRT1 were identified using the assay described above and are shown below in Table 1. The EC1.5 values represent the concentration of test compounds that result in 150% activation of SIRT1. The EC1.5 values for the activating compounds are represented by A (EC1.5<1.0 uM), B (EC1.5 1-25 uM), C (EC1.5>25 uM). The percent maximum fold activation is represented by A (Fold activation >200%) or B (Fold Activation <200%). “NT” indicates the compound was not tested in a particular assay.

Row | EC1.5 | Emax [%] | SMILES
1 | B (EC1.5 1-25 uM) | > 200 | O=C(Nc1nccs1)c1cccn2cc(-c3cccc(CN4CCCC4)c3)nc12 [Compound 256]
2 | B (EC1.5 1-25 uM) | > 200 | O=C(Nc1cccc(CN2CCOCC2)n1)c1cccn2cc(-c3cc(F)c(F)c(F)c3)nc12 [Compound 197]
3 | B (EC1.5 1-25 uM) | < 200 | O=C(Nc1cccn2cc(-c3ccccc3)nc12)c1cscn1 [Compound 101]
4 | B (EC1.5 1-25 uM) | > 200 | O=C(Nc1cnccn1)c1nccn2cc(-c3ccccc3C(F)(F)F)nc12 [Compound 176]
5 | C (EC1.5>25 uM) | < 200 | O=C(Nc1nccs1)c1cccn2cc(-c3ccccc3F)nc12 [Compound 152]
6 | C (EC1.5>25 uM) | < 200 | O=C(Nc1ccccn1)c1cccn2cc(-c3cccc(F)c3)nc12 [Compound 155]
7 | B (EC1.5 1-25 uM) | > 200 | O=C(Nc1cccc(CN2CCOCC2)n1)c1cccn2nc(-c3cccc(C(F)(F)F)c3)nc12 [Compound 178]
8 | B (EC1.5 1-25 uM) | < 200 | O=C(Nc1ccccn1)c1cccn2nc(-c3cc(Cl)ccc3C(F)(F)F)nc12 [Compound 224]
9 | B (EC1.5 1-25 uM) | < 200 | O=C(Nc1nccs1)c1cccn2cc(-c3cccc(OC(F)(F)F)c3)nc12 [Compound 115, N-(thiazol-2-yl)-2-(3-(trifluoromethoxy)phenyl)imidazo[1,2-a]pyridine-8-carboxamide]
10 | B (EC1.5 1-25 uM) | > 200 | Cc1ncccc1-c1nc2c(C(=O)Nc3cccc(CN4CCOCC4)n3)cccn2n1 [Compound 242]
11 | C (EC1.5>25 uM) | < 200 | O=C(Nc1cccn2cc(-c3cccc(C(F)(F)F)c3)nc12)c1cccnc1 [Compound 120]
12 | B (EC1.5 1-25 uM) | > 200 | O=C(Nc1cccnn1)c1nccn2cc(-c3ccccc3OC(F)(F)F)nc12 [Compound 243]
13 | B (EC1.5 1-25 uM) | > 200 | O=C(Nc1nccs1)c1nccn2cc(-c3ccccc3OC(F)(F)F)nc12 [Compound 185]
14 | C (EC1.5>25 uM) | < 200 | O=C(Nc1ccccn1)c1cccn2cc(-c3ccc(C(F)(F)F)cc3)nc12 [Compound 151]
15 | B (EC1.5 1-25 uM) | > 200 | O=C(Nc1nc(CN2CCOCC2)cs1)c1cccn2nc(-c3cccc(OC(F)(F)F)c3)nc12 [Compound 179]
16 | C (EC1.5>25 uM) | < 200 | Cc1nc(C)c(-c2nc3c(C(=O)Nc4ccccn4)cccn3n2)s1 [Compound 230]
17 | B (EC1.5 1-25 uM) | > 200 | O=C(Nc1ccccn1)c1nccn2cc(-c3ccccc3C(F)(F)F)nc12 [Compound 172]
18 | C (EC1.5>25 uM) | < 200 | O=C(Nc1nccs1)c1cccn2cc(-c3ccc(F)cc3)nc12 [Compound 156]
19 | B (EC1.5 1-25 uM) | > 200 | O=C(Nc1ccc(CN2CCOCC2)cc1)c1cccn2cc(-c3ccc(F)cc3C(F)(F)F)nc12 [Compound 147]

Row | EC1.5 | Emax [%] | SMILES
20 | B (EC1.5 1-25 uM) | > 200 | O=C(Nc1ncc(CN2CCCC2)s1)c1cccn2cc(-c3ccc(F)cc3C(F)(F)F)nc12 [Compound 146]
21 | C (EC1.5>25 uM) | < 200 | O=C(Nc1nccs1)c1cccn2cc(-c3ccc(C(F)(F)F)cc3)nc12 [Compound 150]
22 | B (EC1.5 1-25 uM) | > 200 | O=C(Nc1cccc(CN2CCOCC2)n1)c1cccn2nc(-c3cccc(OC(F)(F)F)c3)nc12 [Compound 180]
23 | A (EC1.5<1.0 uM) | > 200 | O=C(Nc1nc(CN2CCOCC2)cs1)c1cccn2cc(-c3cccc(Cl)c3)nc12 [Compound 233]
24 | A (EC1.5<1.0 uM) | > 200 | O=C(Nc1nc(CN2CCOCC2)cs1)c1cccn2cc(-c3cc(F)ccc3F)nc12 [Compound 200]
25 | B (EC1.5 1-25 uM) | > 200 | O=C(Nc1nc(CN2CCOCC2)cs1)c1cccn2nc(-c3cccc(C(F)(F)F)c3)nc12 [Compound 177, N-(4-(morpholinomethyl)thiazol-2-yl)-2-(3-(trifluoromethyl)phenyl)-[1,2,4]triazolo[1,5-a]pyridine-8-carboxamide]
26 | A (EC1.5<1.0 uM) | < 200 | O=C(Nc1nc(CN2CCOCC2)cs1)c1cccn2cc(-c3ccc(F)cc3F)nc12 [Compound 198]
27 | B (EC1.5 1-25 uM) | < 200 | Cc1ccc(-c2cn3ccnc(C(=O)Nc4nc(CN5CCOCC5)cs4)c3n2)cn1 [Compound 164]
28 | B (EC1.5 1-25 uM) | > 200 | O=C(Nc1nccs1)c1cccn2nc(-c3ccccc3OC(F)F)nc12 [Compound 225]
29 | C (EC1.5>25 uM) | < 200 | O=C(Nc1cccn2cc(-c3cccc(OC(F)(F)F)c3)nc12)c1cnccn1 [Compound 105]
30 | C (EC1.5>25 uM) | < 200 | O=C(Nc1nccs1)c1nccn2cc(-c3cccc(OC(F)(F)F)c3)nc12 [Compound 142]
31 | C (EC1.5>25 uM) | < 200 | O=C(Nc1nccs1)c1cccn2cc(-c3ccc(C(F)F)cc3)nc12 [Compound 202, 2-(4-(difluoromethyl)phenyl)-N-(thiazol-2-yl)imidazo[1,2-a]pyridine-8-carboxamide]
32 | B (EC1.5 1-25 uM) | > 200 | O=C(Nc1ccccn1)c1nccn2cc(-c3ccccc3OC(F)(F)F)nc12 [Compound 186]
33 | B (EC1.5 1-25 uM) | < 200 | O=C(Nc1cccc(CN2CCOCC2)n1)c1cccn2cc(-c3ccc(F)cc3F)nc12 [Compound 199]
34 | A (EC1.5<1.0 uM) | > 200 | O=C(Nc1cccc(CN2CCOCC2)n1)c1cccn2cc(-c3cccc(C(F)(F)F)c3)nc12 [Compound 160]
35 | C (EC1.5>25 uM) | < 200 | O=C(NC1CCCC1)c1cccn2cc(-c3ccccc3)nc12 [Compound 110]
36 | B (EC1.5 1-25 uM) | > 200 | O=C(Nc1nccs1)c1nccn2cc(-c3ccc(F)cc3C(F)(F)F)nc12 [Compound 188]
37 | A (EC1.5<1.0 uM) | > 200 | O=C(Nc1cccc(CN2CCOCC2)n1)c1nccn2cc(-c3cccc(OC(F)(F)F)c3)nc12 [Compound 158]
38 | C (EC1.5>25 uM) | < 200 | O=C(Nc1nccs1)c1cccn2nc(-c3ccc(F)cc3C(F)F)nc12 [Compound 263]
